Where two headings read alike, the source gives them in different places.
What was measured:
FluV A (H1N1/PR8) = details: cited from earlier work
TGEV = format: cell-based, transmissible gastroenteritis virus of swine; details: read-out: EC50, TGEV
[1] = tested on: FluV A R-2 (HA Ile202Thr); details: read-out: EC50, Plaque reduction; strain R-2; cited from earlier work
[2] = tested on: FluV A R-1 (HA Lys189Asn, Ile202Thr); details: read-out: EC50, MTT; strain R-1; cited from earlier work
[3] = tested on: Ishikawa/AH3N2/(plaque purified) strain; details: read-out: EC50, Plaque reduction; Parent strain; cited from earlier work
[4] = tested on: FluV A R-2 (HA Ile202Thr); details: read-out: EC50, MTT; strain R-2; cited from earlier work
DFV = details: cited from earlier work
[5] = tested on: FluV A R-b (HA Lys189Asn); details: read-out: EC50, MTT; strain R-b; cited from earlier work
[6] = tested on: FluV A R-c (HA Lys189Asn, Ile202Val); details: read-out: EC50, Plaque reduction; strain R-c; cited from earlier work
FluV A [7] = details: read-out: EC50, FluV A; MTT method; cited from earlier work
PfluV 2 = details: read-out: EC50, PfluV 2; MTT method; cited from earlier work
MDCK cells = details: cited from earlier work
[8] = tested on: FluV A (N3H2/Ishikawa and H1N1/PR8); details: rhodamine-labeled virus, MDCK cells; 10 and 25 μM; cited from earlier work
FIPV = format: cell-based, feline infectious peritonitis virus; details: read-out: EC50, FIPV
[9] = tested on: FluV A R-b (HA Lys189Asn); details: read-out: EC50, Plaque reduction; strain R-b; cited from earlier work
[10] = tested on: FluV A R-c (HA Lys189Asn, Ile202Val); details: read-out: EC50, MTT; strain R-c; cited from earlier work
FluV A [11] = details: read-out: EC50 against FluV A; cited from earlier work
[12] = tested on: Ishikawa/AH3N2/(plaque purified) strain; details: read-out: EC50, MTT; Parent strain; cited from earlier work
CDV = details: read-out: EC50, CDV; plaque reduction method; cited from earlier work
HIV-1 = details: read-out: EC50, HIV-1; MTT method; cited from earlier work
SARS-V = format: cell-based, SARS coronavirus; details: read-out: EC50, SARS-V
[13] = tested on: FluV A R-1 (HA Lys189Asn, Ile202Thr); details: read-out: EC50, Plaque reduction; strain R-1; cited from earlier work
[14] = tested on: FluV A R-4 (HA Ile202Thr); details: read-out: EC50, MTT; strain R-4; cited from earlier work
[15] = tested on: FluV A R-4 (HA Ile202Thr); details: read-out: EC50, Plaque reduction; strain R-4; cited from earlier work
RSV = details: read-out: EC50, RSV; MTT method; cited from earlier work

(iPrNH3)6H[PTi2W10O38(O2)2]H2O [PM-523]
appearance of lungs of infected mice (FluV A (H1N1/PR8); 2.4 mM PM-523 alone, data not shown): swollen and reddened due to congestion | mice survived on the 9th day (FluV A (H1N1/PR8); 4.8 mM PM-523 aerosol every 12 hours for 4 days, 10 LD50 FluV A): half | survival at 14 days after the infection (FluV A (H1N1/PR8); 4.8 mM PM-523 alone): 20% | EC50 (TGEV): 2.5 ± 0.6 µM | EC50 [1]: 73.6 ± 10.8 µM | EC50 [2]: 71.4 ± 6.8 µM | EC50 [3]: 6.6 ± 0.8 µM | EC50 [4]: 67.8 ± 6.5 µM | antiviral activity against DFV (DFV): did not have antiviral activities | EC50 (DFV; read-out: EC50, DFV, MTT method): > 61.5 µM | EC50 [5]: 63 ± 7 µM | EC50 [6]: 78.9 ± 9.4 µM | EC50 (FluV A [7]): 5.6 ± 2 µM | EC50 (PfluV 2): 2.5 ± 1.3 µM | Percent viability of cells (MDCK cells; single compound at 100 μM, untreated cells = 100%): 81.1 ± 2.9% | Percent viability of cells (MDCK cells; single compound at 200 μM): 89.3 ± 5.8% | Percent viability of cells (MDCK cells; single compound at 400 μM): 85.2 ± 3.5% | dequenching of fluorescence (fusion of FluV A envelope with cell membrane) [8]: remarkably reduced | EC50 (FIPV): > 32 µM | EC50 [9]: 66.7 ± 6.2 µM | EC50 [10]: 80.3 ± 6.8 µM | EC50 (FluV A [11]): 2.4 µM | EC50 [12]: 8.7 ± 1.2 µM | EC50 (CDV): 7.3 ± 1.1 µM | EC50 (HIV-1): 0.3 ± 0.1 µM | EC50 (SARS-V): > 50 µM | EC50 [13]: 74.5 ± 10.2 µM | EC50 [14]: 79 ± 10.2 µM | EC50 [15]: 88.1 ± 9.9 µM | EC50 (RSV): 1.3 ± 0.5 µM

Source: publication PMC7118841 (Biomedicine & Pharmacotherapy, 2006)
